Assay results from US20220401428A1, “Method for Treatment of Alzheimer's Disease” (University of Kentucky Research Foundation, priority 2019, published 2022).
“Also recorded” adds a separate entry of the source.

Assays:
miR-103 and miR-107 = miR-103 and miR-107 expression in ECs by qRT-PCR; assay type: cell-based, rat; conditions: ECs incubated with human amylin
From the text: (§1) Total RNA was isolated using RNAqueous total RNA isolation kit according to manufacturer's protocol (Invitrogen, AM1914). cDNA synthesis and amplification were done using iTaq Universal SYBR Green One-Step Kit (Biorad; 1725151) with the following primer sequences: LRP1: forward (Fwd) 5′-[…]-3′(SEQ ID NO: 7), reverse (Rev) 5′-[…]-3′(SEQ ID NO: 8); and GAPDH: Fwd 5′- […]-3′(SEQ ID NO: 9), Rev 5′-GTTTGCTCCAACCAACTGC-3′(SEQ ID NO: 10) (IDT, Inc, USA). For miRNA quantification, cDNA was synthesized from total RNA using miRNA cDNA synthesis kit with poly (A) polymerase (ABMgood, G902). cDNA was amplified using SYBR Green mastermix (Biorad) along with miRNA specific primers from (rno-miR-103-3p, MPR00332; rno-miR-107-3p, MPRO0335; RNU6 house Keeping gene, MP-r99998) (ABMgood). Data were analyzed using the 2^−ΔΔCt method, and experiments were normalized to GAPDH or U6 miRNA

EC monolayer [1] = assay: Structural integrity of the EC monolayer in the in vitro BBB model (TEER, FITC-Dextran, morphology); assay type: cell-based, rat; conditions: 10 μM, 24 hours
Experimental: (§2) In vitro BBB model of Aβ42 transcytosis with amylin-induced stress at the blood side. An in vitro BBB model described previously^37 was used with modifications related to amylin deposition on the EC monolayer and consequent effects on the Aβ transport across the EC monolayer. Briefly, primary rat brain microvascular endothelial cells (Cell Applications Inc) were plated on 24-well Transwell-Clear inserts with 0.4 μm pore polycarbonate membrane (Costar, Corning, N.Y., USA) and primary rat brain astrocytes (Sigma) were cultured at the bottom wells. Barrier integrity was measured from the trans-endothelial electrical resistance (TEER) as described previously^37,38 using the EVOM2 meter with STX-3 electrodes (World Precision Instruments). Maximum TEER was achieved within 8-10 days in culture. BBB permeabilities to human amylin (10 μM; Anaspec; AS-60254-1), rat amylin (10 μM; American Peptide) and DMSO (1 mM; vehicle) were assessed using FITC-Dextran 4 kDa (Fisher Scientific) diluted in Hank's Balanced Salt Solution (HBSS) buffer with 0.1% BSA (HBSS-BSA) as a paracellular diffusion marker. Permeability coefficients were calculated using the formula; P=(ΔQ/Δt)/(A*C0), (ΔQ/Δt)=rate of FITC-Dextran change; A=surface area of insert (0.33cm^2); C0=Initial FITC-Dextran input.

[2] = tested on: rat brain microvascular ECs; assay: Lipid peroxidation and ROS in cultured rat brain microvascular ECs; assay type: cell-based; conditions: 10 μM amylin, 24-hour incubation
Experimental: Lipid peroxidation and ROS were measured in cultured rat brain microvascular ECs using previously published protocols^26,39.

LRP1 = LRP1 protein expression in rat brain microvascular ECs (Western blot, immunofluorescence); assay type: cell-based; conditions: ECs, 24 hours, Western blot
From the text: To study the role of miRNA signaling in amylin-induced suppression of endothelial LRP1 expression, transfection of rat brain microvascular ECs was used with miR-103-3p (MCR01039)[…](SEQ ID NO: 5), miR-107-3p (MCR01045)[…](SEQ ID NO: 6) and control (MCH00000) (https://www.abmgood.com/mirna-mimic-negative-control-mch00000.html). Antagomir miR-103-3p (IH-320345-05-0005)(SEQ ID NO: 5), miR-107-3p (IH-320348-05-0005)(SEQ ID NO: 6) and negative control (IN-001005-01-05) (https://www.biocompare.com/22445-RNA/4995709-miRIDIAN-microRNA-Hairpin-Inhibitor-Negative-Control-1-5-nmol/#productspecs) (Dharmacon Inc.) were used in an attempt to rescue LRP1 expression. All transfections were done using RNAiMAX (Invitrogen) as per manufacturer's recommended protocol. Briefly, ECs were plated at 50% confluency in 6-well plates followed by co-transfection with either 100 nM of 103-3p and 107-3p mimics or antagomirs along with their respective negative controls. After 12-hours, antagomir-treated cell groups were further treated with 10 uM human amylin for 24-hours. After 36-hours of transfection, cells were harvested for Western blot analysis.
In immunofluorescence experiments, formalin-fixed, paraffin-embedded human brain tissue was used and processed as previously described^16,18,39, brain capillaries from HIP and WT rats isolated as previously described^18. and cultured ECs. Anti-amylin (1:200; clone E5; SC-377530; Santa Cruz), anti-collagen IV (1:500; ab6586; abcam), anti-alpha smooth muscle actin-Alexa Fluor 405 (1:200; ab210128, abcam), anti-caveolin-1 (1:100; sc-894; Santa Cruz, Tex.), anti-LRP1 (1:500; sc-57351; Santa Cruz), anti-4HNE (1:200; ab46545; abcam) were the primary antibodies. Secondary antibodies were: Alexa Fluor 488 conjugated anti-mouse IgG (1:300; A11029; Invitrogen), Alexa Fluor 568 conjugated anti-rabbit IgG (1:200; A11036; Invitrogen), Alexa Fluor 568 conjugated anti-mouse IgG (1:300; A11004; Invitrogen). Nuclei were counterstained with DAPI mounting media. For triple staining of human brain tissues, smooth muscle actin-Alexa Fluor 405 antibody was added after staining with human amylin and collagen IV; DAPI free mounting media was used. For Thioflavin S staining, after secondary antibody incubation, brain slides were incubated in 0.5% Thioflavin S for 30 minutes at room temperature. Slides were then incubated for 3 minutes in 70% ethanol, 5 minutes in 0.2% Sudan black before washing and mounting. Immunocytochemistry was performed as described previously (39, 40).
Western blot analysis was performed on isolated brain capillaries, brain tissue homogenate and plasma from rats. Tissues were processed as described previously^16,18,28,39. RIPA buffer with 2% SDS was used to retrieve Aβ monomers from frozen brain samples^41. […]

[3] = tested on: rat brain microvascular endothelial cells; assay: MTS cytotoxicity assay on ECs; assay type: cell-based; conditions: 500 nM, 1 μM, 5 μM and 10 μM, 24 hours
From the text: CellTiter 96® AQueous One Solution Cell Proliferation Assay (MTS) (Promega) was used to assess cytotoxicity of aggregated amylin on the EC monolayer.

LRP1 mRNA = LRP1 mRNA levels in ECs by qRT-PCR; assay type: cell-based; conditions: 10 μM, vs control cells and ECs incubated with rat amylin
From the text: as §1

EC monolayer [4] = assay: Aβ42 transcytosis across the in vitro BBB model; assay type: cell-based, rat; conditions: 10 μM at the luminal side for 24 hours, then Aβ42-FAM at the abluminal side for 1 hour; vs vehicle; P<0.05
Experimental: as §2, with “input. […]” for “input.”

In the case of human amylin, the “miR-103 and miR-107 levels” value (miR-103 and miR-107) is reported as “elevated levels of miR-103 and miR-107”, the EC monolayer morphology (EC monolayer [1]) is reported as “neither the intercellular space, as assessed from FITC-dextran permeability (FIG. S4C-D), nor EC monolayer morphology (FIG. 18E) were significantly altered” and the TEER (EC monolayer [1]) is reported as “decreased”. The “intercellular space assessed from FITC-dextran (4 kDa) permeability” value (EC monolayer [1]) was “neither the intercellular space, as assessed from FITC-dextran permeability (FIG. S4C-D), nor EC monolayer morphology (FIG. 18E) were significantly altered”, the “generation of ROS” value [2] was “increased generation of ROS” and the “lipid peroxidation of the EC membranes” value [2] was “lipid peroxidation of the EC membranes”. For the same substance, the “reduction of LRP1 expression” value (LRP1; 10 μM) was “more than 50%”, the “LRP1 protein levels against concentration” value (LRP1; various concentrations (500 nM to 10 μM)) was “decreased with increasing concentrations” and the “viability of the ECs” value [3] was “not significant; also recorded: not affected”. For the same substance, the “LRP1 mRNA levels” value (LRP1 mRNA) was “greatly elevated” and the “reduction of the Aβ transcytosis quotient” value (EC monolayer [4]) was 20+5%.
